Source: patent publication US7612064B2, “Sulfopyrroles” (Takeda Pharmaceutical Company Limited, priority 2003, dated 2009)

Assays:
[1] = system: MRC5; experiment: MTS proliferation assay; assay type: cell-based; details: MRC5, 72 h
In short: (§1)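 Cells exposed 72 h under culture conditions to compound at 10, 3, 1 and 0.3 μM final, added in medium with max 5% DMSO. MTS reagent then added for a further 3 h and absorbance read at 492 nm.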

[2] = system: Jily; experiment: MTS proliferation assay; assay type: cell-based; details: 72 h
In short: as §1

[3] = system: HeLa; experiment: MTS proliferation assay; assay type: cell-based, human; details: 72 h
In short: as §1

[4] = system: Jurkat; experiment: MTS proliferation assay; assay type: cell-based, human; details: 72 h
In short: as §1

[5] = Hoechst 33342 nuclear staining; assay type: cell-based; details: for Hoechst 33342 nuclear staining score, H460: H460 cells; for Hoechst 33342 nuclear staining score, HeLa: HeLa cells; for Hoechst 33342 nuclear staining score, Jily: Jily cells; for Hoechst 33342 nuclear staining score, Jurkat: Jurkat cells; for Hoechst 33342 nuclear staining score, MRC5: MRC5 cells; on Hoechst 33342 nuclear staining score, PBLs: key: 0: no activity; 1: weak activity comprising less than 50% of the cells; 2: strong activity comprising more than 50% of the cells;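 on all read-outs here: apoptotic nuclei scored 0 none 1 weak under 50% of cells 2 strong over 50% of cells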
In short: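 Cells were plated in 96 well tissue culture plates in 80 μl complete medium, with 3-5*10^3 cells per well for adherent lines and 8-10*10^3 for suspension lines. Adherent cells spread for 24 h before treatment, while suspension cells were treated right after seeding. Compounds were added in 20 μl complete medium containing max 5% DMSO.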

Row | Compound | IC50 [2] | Hoechst 33342 nuclear staining score, H460 ([5]; conc 0.1) | Hoechst 33342 nuclear staining score, H460 ([5]; conc 0.3) | Hoechst 33342 nuclear staining score, H460 ([5]; conc 1) | Hoechst 33342 nuclear staining score, H460 ([5]; conc 3) | Hoechst 33342 nuclear staining score, HeLa ([5]; conc 0.1) | Hoechst 33342 nuclear staining score, HeLa ([5]; conc 0.3) | Hoechst 33342 nuclear staining score, HeLa ([5]; conc 1) | Hoechst 33342 nuclear staining score, HeLa ([5]; conc 3) | Hoechst 33342 nuclear staining score, Jily ([5]; conc 0.1) | Hoechst 33342 nuclear staining score, Jily ([5]; conc 0.3) | Hoechst 33342 nuclear staining score, Jily ([5]; conc 1) | Hoechst 33342 nuclear staining score, Jily ([5]; conc 3) | Hoechst 33342 nuclear staining score, Jurkat ([5]; conc 0.1) | Hoechst 33342 nuclear staining score, Jurkat ([5]; conc 0.3) | Hoechst 33342 nuclear staining score, Jurkat ([5]; conc 1) | Hoechst 33342 nuclear staining score, Jurkat ([5]; conc 3) | Hoechst 33342 nuclear staining score, MRC5 ([5]; conc 0.1) | Hoechst 33342 nuclear staining score, MRC5 ([5]; conc 0.3) | Hoechst 33342 nuclear staining score, MRC5 ([5]; conc 1) | also measured
1 | COc1ccc(S(=O)(=O)n2cc(-c3ccc(N)nc3)cc2-c2cc(OC)c(OC)c(OC)c2)cc1 [Example 100, 4-(2-Aminopyrid-5-yl)-1-p-methoxyphenylsulfonyl-2-(3,4,5-trimethoxyphenyl)-pyrrole] | < 200 nM | 0 | 2 (strong activity comprising more than 50% of the cells) | 2 (strong activity comprising more than 50% of the cells) | 2 (strong activity comprising more than 50% of the cells) | 0 | 2 (strong activity comprising more than 50% of the cells) | 2 (strong activity comprising more than 50% of the cells) | 2 (strong activity comprising more than 50% of the cells) | 0 | 2 (strong activity comprising more than 50% of the cells) | 2 (strong activity comprising more than 50% of the cells) | 2 (strong activity comprising more than 50% of the cells) | 0 | 2 (strong activity comprising more than 50% of the cells) | 2 (strong activity comprising more than 50% of the cells) | 2 (strong activity comprising more than 50% of the cells) | 0 | 1 (weak activity comprising less than 50% of the cells) | 2 (strong activity comprising more than 50% of the cells) | IC50 ([1]; Homo sapiens): < 200 nM; IC50 ([3]; Homo sapiens): < 200 nM; IC50 ([4]; Homo sapiens): < 200 nM; Hoechst 33342 nuclear staining score, MRC5 ([5]; conc 3): 2 (strong activity comprising more than 50% of the cells); Hoechst 33342 nuclear staining score, PBLs ([5]; conc 0.1): 0; Hoechst 33342 nuclear staining score, PBLs ([5]; conc 0.3): 0; Hoechst 33342 nuclear staining score, PBLs ([5]; conc 1): 0; Hoechst 33342 nuclear staining score, PBLs ([5]; conc 3): 0
2 | COc1cc(-c2cc(-c3cccnc3)cn2S(=O)(=O)c2c(Cl)cccc2Cl)cc(OC)c1OC [Example 85] | > 1000 nM | 0 | 0 | 0 | 0 | 0 | 0 | 0 | 0 | 0 | 0 | 0 | 0 | 0 | 0 | 0 | 0 | 0 | 0 | 0 | IC50 [1]: > 1000 nM; IC50 [3]: > 1000 nM; IC50 [4]: > 1000 nM; Hoechst 33342 nuclear staining score, MRC5 ([5]; conc 3): 0; Hoechst 33342 nuclear staining score, PBLs ([5]; conc 0.1): 0; Hoechst 33342 nuclear staining score, PBLs ([5]; conc 0.3): 0; Hoechst 33342 nuclear staining score, PBLs ([5]; conc 1): 0; Hoechst 33342 nuclear staining score, PBLs ([5]; conc 3): 0
3 | COc1cc(-c2cc(-c3cccnc3)cn2S(=O)(=O)c2ccccc2)cc(OC)c1OC [Example 79] | > 1000 nM | 0 | 0 | 0 | 0 | 0 | 0 | 0 | 0 | 0 | 0 | 0 | 0 | 0 | 0 | 0 | 0 | 0 | 0 | 0 | IC50 [1]: > 1000 nM; IC50 [3]: > 1000 nM; IC50 [4]: < 1000 nM; Hoechst 33342 nuclear staining score, MRC5 ([5]; conc 3): 0; Hoechst 33342 nuclear staining score, PBLs ([5]; conc 0.1): 0; Hoechst 33342 nuclear staining score, PBLs ([5]; conc 0.3): 0; Hoechst 33342 nuclear staining score, PBLs ([5]; conc 1): 0; Hoechst 33342 nuclear staining score, PBLs ([5]; conc 3): 0
4 | COc1ccc(S(=O)(=O)n2cc(CNc3ccc(N4CCOCC4)cc3)cc2-c2cc(OC)ccc2OC)cc1 [Example 95] | > 1000 nM | 0 | 0 | 0 | 2 (strong activity comprising more than 50% of the cells) | 0 | 0 | 0 | 2 (strong activity comprising more than 50% of the cells) | 0 | 0 | 0 | 2 (strong activity comprising more than 50% of the cells) | 0 | 0 | 0 | 2 (strong activity comprising more than 50% of the cells) | 0 | 0 | 0 | IC50 [1]: > 1000 nM; IC50 [3]: > 1000 nM; IC50 [4]: > 1000 nM; Hoechst 33342 nuclear staining score, MRC5 ([5]; conc 3): 0; Hoechst 33342 nuclear staining score, PBLs ([5]; conc 0.1): 0; Hoechst 33342 nuclear staining score, PBLs ([5]; conc 0.3): 0; Hoechst 33342 nuclear staining score, PBLs ([5]; conc 1): 0; Hoechst 33342 nuclear staining score, PBLs ([5]; conc 3): 0
5 | COc1ccc(S(=O)(=O)n2cc(-c3ccc(N)nc3)cc2-c2ccc(OC)cc2OC)cc1 [Example 102] | < 1000 nM | 0 | 0 | 1 (weak activity comprising less than 50% of the cells) | 2 (strong activity comprising more than 50% of the cells) | 0 | 0 | 1 (weak activity comprising less than 50% of the cells) | 2 (strong activity comprising more than 50% of the cells) | 0 | 0 | 2 (strong activity comprising more than 50% of the cells) | 2 (strong activity comprising more than 50% of the cells) | 0 | 0 | 2 (strong activity comprising more than 50% of the cells) | 2 (strong activity comprising more than 50% of the cells) | 0 | 0 | 0 | IC50 [1]: > 1000 nM; IC50 [3]: > 1000 nM; IC50 [4]: < 1000 nM; Hoechst 33342 nuclear staining score, MRC5 ([5]; conc 3): 2 (strong activity comprising more than 50% of the cells); Hoechst 33342 nuclear staining score, PBLs ([5]; conc 0.1): 0; Hoechst 33342 nuclear staining score, PBLs ([5]; conc 0.3): 0; Hoechst 33342 nuclear staining score, PBLs ([5]; conc 1): 0; Hoechst 33342 nuclear staining score, PBLs ([5]; conc 3): 0
